Test results published in patent US10689425B2, “Collagen-binding synthetic peptidoglycans, preparation, and methods of use” (Purdue Research Foundation, priority 2008, dated 2020).
Groups on a side chain read outwards from the residue. *: point of attachment. PDPH = heterobifunctional sulfhydryl-reactive crosslinker; Dansyl = CN(C)c1cccc2c(S(=O)(=O)*)cccc12

B1: Decorin: proteoglycan known to influence collagen fibrillogenesis (protein, UniProt P07585 31-359, looked up)
Decorin: DEASGIGPEVPDDRDFEPSLGPVCPFRCQCHLRVVQCSDLGLDKVPKDLPPDTTLLDLQNNKITEIKDGDFKNLKNLHALILVNNKISKVSPGAFTPLVKLERLYLSKNQLKELPEKMPKTLQELRAHENEITKVRKVTFNGLNQMIVIELGTNPLKSSGIENGAFQGMKKLSYIRIADTNITSIPQGLPPSLTELHLDGNKISRVDAASLKGLNNLAKLGLSFNSISAVDNGSLANTPHLRELHLDNNKLTRVPGGLAEHKYIQVVYLHNNNISVVGSSDFCPPGHNTKKASYSGVSLFSNPVQYWEIQPSTFRCVYVRSAIQLGNYK

Key:
collagen [1] = test: Microplate fluorescence binding of dansyl-labelled peptide or conjugate to immobilized collagen; conditions: collagen vs BSA and untreated wells; 100 μM to 10 nM
Protocol: Binding assays were done in a 96-well high-binding plate, black with a clear bottom (Costar). Collagen was compared to untreated wells and BSA coated wells. Collagen and BSA were immobilized at 37° C. for 1 hr by incubating 90 μL/well at concentrations of 2 mg/mL in 10 mM HCl and 1×PBS, respectively. Each well was washed 3× with 1×PBS after incubating. Z-SILY was dissolved in 1×PBS at concentrations from 100 μM to 10 nM in 10-fold dilutions. Wells were incubated for 30 min at 37° C. and rinsed 3× with PBS and then filled with 90 μL of 1×PBS. Fluorescence readings were taken on an M5 Spectramax Spectrophotometer (Molecular Devices) at excitation/emission wavelengths of 335 nm/490 nm respectively.
Binding assays were done in a 96-well high binding plate, black with a clear bottom (Costar). Collagen was compared to untreated wells and BSA coated wells. Collagen and BSA were immobilized at 37° C. for 1 hr by incubating 90 μL/well at concentrations of 2 mg/mL in 10 mM HCl and 1×PBS respectively. […]
Wells were preincubated with DS at 37° C. for 30 min to eliminate nonspecific binding of DS to collagen. […] Fluorescence readings were taken on an M5 Spectramax Spectrophotometer (Molecular Devices) at excitation/emission wavelengths of 335 nm/490 nm respectively.
The fluorescence binding assays described for DS-ZSILY was performed with peptide sequence ZSYIRIADTNITGC (ZDc13).

collagen [2] = test: SILY binding to collagen (Biacore surface plasmon resonance)
Protocol: Biacore studies were performed on a Biacore 2000 using a CM-3 chip (Biacore, Inc., Piscataway, N.J.). The CM-3 chip is coated with covalently attached carboxymethylated dextran, which allows for attachment of the substrate collagen via free amine groups. Flow cells (FCs) 1 and 2 were used, with FC-1 as the reference cell and FC-2 as the collagen immobilized cell. Each FC was activated with EDC-NHS, and 1500RU of collagen was immobilized on FC-2 by flowing 1 mg/mL collagen in sodium acetate, pH 4, buffer at 5 μL/min for 10 min. Unreacted NHS-ester sites were capped with ethanolamine; the control FC-1 was activated and capped with ethanolamin.
To determine peptide binding affinity, SILY was dissolved in 1×HBS-EP buffer (Biacore) at varying concentrations from 100 uM to 1.5 μm in 2-fold dilutions. […] The first 10 injections were buffer injections, which help to prime the system, followed by randomized sample injections, run in triplicate. Analysis was performed using BIAevaluation software (Biacore).

[3] = system: Human aortic smooth muscle cells; test: Collagen remodeling: hydroxyproline content in cell medium; type: cell-based; conditions: cultures up to 30 days
Protocol: Following a method by Grassl, et al. (Grassl, et al., Journal of Biomedical Materials Research 2002, 60, (4), 607-612), which is herein incorporated in its entirety, collagen gels with or without synthetic PG mimics were formed as described in EXAMPLE 16. Human aortic smooth muscle cells (Cascade Biologics, Portland, Oreg.) were seeded within collagen gels by adding 4×10^6 cells/mL to the neutralized collagen solution prior to incubation. The cell-collagen solutions were pipetted into an 8-well Lab-Tek chamber slide and incubated in a humidified 37° C. and 5% CO2 incubator. After gelation, the cell-collagen gels will be covered with 1 mL Medium 231 as prescribed by Cascade. Every 3-4 days, the medium was removed from the samples and the hydroxyproline content measured by a standard hydroxyproline assay (Reddy, 1996).
To measure degraded collagen in the supernatant medium, the sample was lyophilized, the sample hydrolyzed in 2M NaOH at 120° C. for 20 min. After cooling, free hydroxyproline was oxidized by adding chloramine-T (Sigma) and reacting for 25 min at room temperature. Ehrlich's aldehyde reagent (Sigma) was added and allowed to react for 20 min at 65° C. and followed by reading the absorbance at 550 nm on an M-5 spectrophotometer (Molecular Devices). […] Cultures were incubated for up to 30 days and three samples of each treatment measured. […]

Type I collagen gels = target: T1, Type I collagen gels (Bos taurus, UniProt P02453+P02465); test: Cryo-SEM of type I collagen gels (fibril diameter, sheet distance, fibril density); conditions: for Fibril diameter: Example 29, images at 20,000×, α=0.05
T1 construct: purchased Inamed, Freemont, Calif; (Nutragen)
Protocol: (§1) Gels were made with Nutragen collagen (Inamed, Freemont, Calif.) at a final concentration of 4 mg/mL collagen. Nutragen stock is 6.4 mg/mL in 10 mM HCl. Gel preparation was performed on ice, and fresh samples were made before each test. The collagen solution was adjusted to physiologic pH and salt concentration, by adding appropriate volumes of 10×PBS (phosphate buffered saline), 1×PBS, and 1M NaOH. For most experiments, samples of DS, decorin, DS-SILY, or DS-SYIR were added at a 10:1 collagen:sample molar ratio by a final 1×PBS addition (equal volumes across treatments) in which the test samples were dissolved at appropriate concentrations. In this way, samples are constantly kept at pH 7.4 and physiologic salt concentration. Collagen-alone samples received a 1×PBS addition with no sample dissolved. Fibrillogenesis will be induced by incubating neutralized collagen solutions at 37° C. overnight in a humidified chamber to avoid dehydration. Gel solutions with collagen:sample molar ratios of other than 10:1 were prepared similarly.
Gels for cryo-SEM were formed, as in EXAMPLE 16, directly on the SEM stage and incubated at 37° C. overnight. The stages were then secured in a cryo-holder and plunged into liquid nitrogen slush. Samples were then transferred to a Gatan Alto 2500 pre-chamber cooled to −170° C. under vacuum. A free-break surface was created with a cooled scalpel, and each sample evaporated under sublimation conditions for 20 min. The sample was coated by platinum sputter coating for 120 s. […] Fibril diameter was calculated using ImageJ software (NIH) measuring individual fibrils by hand (drawing a line across fibrils and measuring its length after properly setting the scale). There were 3 observers, 3 separate images per treatment, 10 fibrils recorded per image giving a total of 90 measurements per treatment. Sheet distance was calculated using ImageJ, again measuring by hand. […]
Using a modification of EXAMPLE 21 fibril diameters were measured by cryo-SEM. Fibril diameters from cryo-SEM images taken at 20,000× were measured using ImageJ software (NIH). At least 45 fibrils were measured for each treatment. […]
Collagen gels were formed in the presence of each additive at a 10:1 molar ratio, as described in EXAMPLE 16, directly on the SEM stage, processed, and imaged as described. Images at 10,000× were analyzed for fibril density calculations. Images were converted to 8-bit black and white, and threshold values for each image were determined using ImageJ software (NIH). […] The ratio of white to black area was calculated using MatLab software. All measurements were taken in triplicate and thresholds were determined by an observer blinded to the treatment.

collagen [4] = target: T2, collagen (Bos taurus, UniProt P02453+P02465); test: Collagen fibrillogenesis by turbidity (absorbance at 313 nm); type: biochemical; conditions: 1:1 collagen:additive molar ratio
T2 construct: purchased Inamed, Freemont, Calif; (Nutragen)
Protocol: as §1
Collagen fibrillogenesis was monitored by measuring turbidity related absorbance at 313 nm providing information on rate of fibrillogenesis and fibril diameter. […] A SpectraMax M5 at 37° C. was used to measure absorbance at 313 nm at 30 s intervals for 6 hours. […]

[5] = system: Human coronary artery smooth muscle cells (HCA SMC); test: Gel compaction by cells seeded in collagen gels; type: cell-based
Protocol: Human coronary artery smooth muscle cells (HCA SMC) (Cascade Biologics) were cultured in growth medium (Medium 231 supplemented with smooth muscle growth factor). Cells from passage 3 were used for all experiments. Differentiation medium (Medium 231 supplemented with 1% FBS and 1× pen/strep) was used for all experiments unless otherwise noted.
Collagen gels were prepared with each additive as described with the exception that the 1×PBS example addition was omitted to accommodate the addition of cells in media. After incubating on ice for 30 min, HCA SMCs in differentiation medium were added to the gel solutions to a final concentration of 1×10^6 cells/mL. Gels were formed in quadruplicate in 48-well non-tissue culture treated plates (Costar) for 6 hrs before adding 500 μL/well differentiation medium. Gels were freed from the well edges after 24 hrs. Medium was changed every 2-3 days and images for compaction were taken at the same time points using a Gel Doc System (Bio-Rad). The cross-sectional area of circular gels correlating to degree of compaction was determined using ImageJ software (NIH). Gels containing no cells were used as a negative control and cells in collagen gels absent additive were used as a positive control. By day 10 all gels had compacted to approximately 10% of the original gel area, and differences between additives were small.

T1 sequence (P02453 162-1217 limits assumed): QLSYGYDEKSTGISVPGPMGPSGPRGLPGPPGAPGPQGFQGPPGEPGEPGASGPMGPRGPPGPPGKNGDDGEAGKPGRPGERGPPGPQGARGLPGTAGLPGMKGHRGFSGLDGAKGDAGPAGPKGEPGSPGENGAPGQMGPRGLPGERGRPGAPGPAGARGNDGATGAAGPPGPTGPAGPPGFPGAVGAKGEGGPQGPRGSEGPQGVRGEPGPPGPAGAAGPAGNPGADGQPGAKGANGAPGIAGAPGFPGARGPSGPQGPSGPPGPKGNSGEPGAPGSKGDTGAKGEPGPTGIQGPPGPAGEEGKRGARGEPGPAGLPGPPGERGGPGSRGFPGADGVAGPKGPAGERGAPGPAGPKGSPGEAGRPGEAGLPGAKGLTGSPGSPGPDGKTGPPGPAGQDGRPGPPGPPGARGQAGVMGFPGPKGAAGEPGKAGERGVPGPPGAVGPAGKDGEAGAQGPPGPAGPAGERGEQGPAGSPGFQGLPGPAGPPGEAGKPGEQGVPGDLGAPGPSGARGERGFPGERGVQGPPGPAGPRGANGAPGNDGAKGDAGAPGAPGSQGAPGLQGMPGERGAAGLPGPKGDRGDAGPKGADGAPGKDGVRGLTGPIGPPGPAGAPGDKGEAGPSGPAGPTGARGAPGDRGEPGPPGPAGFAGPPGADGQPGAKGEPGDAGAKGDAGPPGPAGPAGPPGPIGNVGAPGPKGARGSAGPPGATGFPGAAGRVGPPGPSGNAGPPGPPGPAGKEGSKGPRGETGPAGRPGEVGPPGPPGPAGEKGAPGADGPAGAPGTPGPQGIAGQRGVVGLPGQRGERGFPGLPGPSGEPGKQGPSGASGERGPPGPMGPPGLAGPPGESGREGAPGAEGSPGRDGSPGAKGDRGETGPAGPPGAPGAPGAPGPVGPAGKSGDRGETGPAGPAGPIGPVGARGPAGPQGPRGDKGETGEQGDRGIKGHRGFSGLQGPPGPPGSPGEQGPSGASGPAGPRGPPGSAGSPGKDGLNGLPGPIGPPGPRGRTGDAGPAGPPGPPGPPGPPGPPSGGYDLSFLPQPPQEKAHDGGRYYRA
T1 sequence (P02465 80-1117 limits assumed): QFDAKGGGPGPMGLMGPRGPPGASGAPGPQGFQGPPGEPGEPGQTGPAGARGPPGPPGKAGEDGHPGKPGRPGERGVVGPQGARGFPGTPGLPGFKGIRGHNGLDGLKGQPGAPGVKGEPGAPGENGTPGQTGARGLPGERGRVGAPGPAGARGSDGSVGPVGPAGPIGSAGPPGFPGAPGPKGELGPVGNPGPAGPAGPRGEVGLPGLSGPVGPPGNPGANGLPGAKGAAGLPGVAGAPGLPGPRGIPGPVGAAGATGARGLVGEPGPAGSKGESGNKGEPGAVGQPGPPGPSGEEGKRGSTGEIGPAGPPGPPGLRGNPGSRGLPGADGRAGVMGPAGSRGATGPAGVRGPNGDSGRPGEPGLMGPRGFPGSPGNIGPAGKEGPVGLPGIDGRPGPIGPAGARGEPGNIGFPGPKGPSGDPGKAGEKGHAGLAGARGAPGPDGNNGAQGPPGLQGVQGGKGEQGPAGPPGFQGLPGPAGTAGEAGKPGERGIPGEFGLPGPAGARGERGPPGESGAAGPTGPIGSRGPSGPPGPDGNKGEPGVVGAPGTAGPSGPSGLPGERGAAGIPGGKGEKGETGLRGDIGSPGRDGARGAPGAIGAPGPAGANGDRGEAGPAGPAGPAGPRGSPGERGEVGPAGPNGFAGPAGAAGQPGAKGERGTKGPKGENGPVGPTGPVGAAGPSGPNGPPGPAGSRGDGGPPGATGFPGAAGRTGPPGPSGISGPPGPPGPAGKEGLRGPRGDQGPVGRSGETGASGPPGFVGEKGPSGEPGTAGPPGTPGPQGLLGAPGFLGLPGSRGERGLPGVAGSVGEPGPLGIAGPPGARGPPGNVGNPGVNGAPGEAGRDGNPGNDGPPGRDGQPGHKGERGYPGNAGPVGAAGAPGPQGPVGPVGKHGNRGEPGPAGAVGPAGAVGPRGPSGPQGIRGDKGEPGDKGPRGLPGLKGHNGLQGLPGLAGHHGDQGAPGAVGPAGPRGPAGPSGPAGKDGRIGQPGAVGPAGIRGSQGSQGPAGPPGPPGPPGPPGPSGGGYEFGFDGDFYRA
T2 sequence (P02453 162-1217 limits assumed): as the sequence (P02453 162-1217 limits assumed) above
T2 sequence (P02465 80-1117 limits assumed): as the sequence (P02465 80-1117 limits assumed) above

Row | Molecule | Specific binding to collagen-treated wells (collagen [1]) | Collagen degradation by hydroxyproline content in cell medium [3] | Fibril diameter (Type I collagen gels) | also measured
1 | DS-Z-SILY: dermatan sulfate conjugated to dansyl-modified peptide Z-SILY (Dansyl-GRRANAALKAGELYKSILYGC([PDPH-oxidized dermatan sulfate])-NH2) | binds specifically to the collagen-treated wells over BSA and untreated wells |  |  | 
2 | RRANAALKAGELYKSILYGC |  | greater collagen degradation compared to collagen alone | decrease in fibril diameter | Reversibility of binding to collagen (collagen [2]; association/disassociation curves, FIG. 3): binds reversibly with collagen; Kd (collagen [2]; calculated from the on-off binding kinetics, collagen immobilized on CM-3 chip): 1.2 µM; Fibril density (ratio of fibril containing area to void space) (Type I collagen gels; 10:1 collagen:additive, images at 10,000×): significantly greater fibril density
3 | SYIRIADTNITGC [Dc13, Dc13 peptide] |  | greater collagen degradation compared to collagen alone | does not affect fibril diameter | Effect on fibrillogenesis (collagen [4]): little effect on fibrillogenesis compared to collagen alone
4 | DS-ZDc13: dermatan sulfate conjugate of ZSYIRIADTNITGC (ZDc13) | binds specifically to the collagen surface in a dose-dependent manner |  |  | 
5 | B1 |  |  | significantly decrease fibril diameter over collagen or collagen+dermatan sulfate | Gel compaction, statistical significance ([5]; Day 7): significant against all samples; Gel compaction, statistical significance ([5]; Days 3 and 5): significant relative to collagen and DS
